PMC4464910 (Pharmacological research : the official journal of the …, 2015)
pIC50: −log10 of the molar value.

Experiments:
mechanical hyperalgesia = assay: carrageenan-induced mechanical hyperalgesia; type: in vivo, CD1 mice; conditions: mice, oral, time point 4 hours
mechanical allodynia = type: in vivo, Sprague-Dawley rats; conditions: for ED50 on mechanical allodynia: i.p., time point 1 hour
2-AG hydrolysis = 2-AG hydrolysis colorimetric assay in rat brain microsomes; type: biochemical; conditions: read-out: 2-AG hydrolysis IC50, n=3
[1] = tested on: carrageenan-induced edema; assay: carrageenan-induced paw edema; type: in vivo, CD1 mice; conditions: mice, 10 mg kg^−1 oral, P<.001
heat hyperalgesia = assay: carrageenan-induced heat hyperalgesia; type: in vivo, CD1 mice; conditions: mice, oral, time point 4 hours

| pIC50 (2-AG hydrolysis) | SMILES | ED50 on mechanical hyperalgesia (mechanical hyperalgesia) | ED50 on mechanical allodynia (mechanical allodynia; diabetic rats) | suppression of edema 24 hours after application [1] | ED50 on heat hyperalgesia (heat hyperalgesia) | effect on allodynia at 0.3 mg kg^−1 (mechanical allodynia; neuropathic rats, 0.3 mg kg^−1 dose) | effect on allodynia compared with TPPU and URB937 at the same dose (mechanical allodynia; diabetic rats, 3 mg kg^−1 i.p.) |
| --- | --- | --- | --- | --- | --- | --- | --- |
| < 4.00 | CCC(=O)N1CCC(NC(=O)Nc2ccc(OC(F)(F)F)cc2)CC1 [TPPU] | 1 mg/kg | 0.1 mg/kg | still statistically detectable | 0.5 mg/kg |  |  |
| < 4.00 | NC(=O)c1cccc(-c2cc(OC(=O)NC3CCCCC3)ccc2O)c1 [URB937] |  | 0.3 mg/kg |  | 0.2 mg/kg | attenuated allodynia |  |
|  | O=C(Nc1cccc(OC(F)(F)F)c1)N[C@H]1CC[C@H](Oc2ccc(C(=O)O)cc2)CC1 [t-TUCB, trans-4-[4-(3-trifluoromethoxyphenyl-l-ureido)-cyclohexyloxy]-benzoic acid] |  |  |  |  |  | similar |
